Patent US11919902B2, “Aryl-bipyridine amine derivatives as phosphatidylinositol phosphate kinase inhibitors” (HiberCell, Inc., priority 2017, dated 2024)

Legend:
[1] = target: T1, PIP4K2A (full length protein, SignalChem) (Homo sapiens, UniProt P48426); assay: Kinase Assay PIP4K2 A (Sprint); ADP-Glo biochemical assay; details: Table 2; compounds listed under IC50 range headings
T1 construct: 4 nM PIP4K2A (full length protein, SignalChem); purchased SignalChem
T1 sequence (P48426 1-406): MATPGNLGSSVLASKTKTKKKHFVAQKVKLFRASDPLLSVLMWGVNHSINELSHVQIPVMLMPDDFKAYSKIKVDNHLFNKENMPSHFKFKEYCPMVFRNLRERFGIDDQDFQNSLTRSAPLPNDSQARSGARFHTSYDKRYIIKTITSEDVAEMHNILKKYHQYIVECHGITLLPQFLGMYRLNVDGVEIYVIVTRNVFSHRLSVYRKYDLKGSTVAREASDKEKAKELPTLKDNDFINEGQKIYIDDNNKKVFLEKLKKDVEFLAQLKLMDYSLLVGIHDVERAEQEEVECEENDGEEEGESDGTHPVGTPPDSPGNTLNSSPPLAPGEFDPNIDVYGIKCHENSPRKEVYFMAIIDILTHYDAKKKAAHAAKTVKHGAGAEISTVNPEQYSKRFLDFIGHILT
How it was run: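 ADP-Glo luminescence detected ADP after a 1 h RT reaction started with 60 μM ATP solution. Before that, full-length PIP4K2A (4 nM in mix) with 100 μM PI(5)P diC8 was pre-incubated 15 min with compounds in MOPS buffer pH 7.2, 25 mM MgCl2, 0.005% Tween 20. IC50 derived from % inhibition relative to DMSO over 10 three-fold concentrations.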

[2] = target: T2, GST tagged PIP4KtypeIIA (Homo sapiens, UniProt P48426); assay: ADP-glo kinase assay PIP4K 2A (PIP4KtypeIIA inhibition assay); format: biochemical; details: Table 3; compounds listed under IC50 range headings; 10 uM ATP, 0.5 nM PIP4KIIA
T2 construct: made in house; host or cells: E. coli
T2 sequence (P48426 1-406): T1 sequence (P48426 1-406)
How it was run: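 Read-out was ADP-Glo luminescence converted to μM ADP, with IC50 plotted as % of no-inhibitor activity against log concentration. Reactions contained 10 μM ATP, 80 μM PI5P with DOPE carrier, and 0.5 nM GST-tagged PIP4KIIA (E. coli-expressed) in pH 7.3 HEPES/MgCl2 buffer with 5% DMSO. Enzyme and compound (≤4.8 μM) were preincubated 1 h at 27 °C before the 1 h reaction.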

[3] = target: T3, GST tagged PIP4KtypeIIB (Homo sapiens, UniProt P78356); assay: Trans-FI P kinase assay PIP4K2B (PIP4KtypeIIB inhibition assay); format: biochemical; details: Table 4; compounds listed under IC50 range headings; 100 uM GTP, 5 nM PIP4KIIB; read-out: Trans-FI P kinase assays: PIP4K2B IC50
T3 construct: made in house; host or cells: E. coli
T3 sequence (P78356 1-416): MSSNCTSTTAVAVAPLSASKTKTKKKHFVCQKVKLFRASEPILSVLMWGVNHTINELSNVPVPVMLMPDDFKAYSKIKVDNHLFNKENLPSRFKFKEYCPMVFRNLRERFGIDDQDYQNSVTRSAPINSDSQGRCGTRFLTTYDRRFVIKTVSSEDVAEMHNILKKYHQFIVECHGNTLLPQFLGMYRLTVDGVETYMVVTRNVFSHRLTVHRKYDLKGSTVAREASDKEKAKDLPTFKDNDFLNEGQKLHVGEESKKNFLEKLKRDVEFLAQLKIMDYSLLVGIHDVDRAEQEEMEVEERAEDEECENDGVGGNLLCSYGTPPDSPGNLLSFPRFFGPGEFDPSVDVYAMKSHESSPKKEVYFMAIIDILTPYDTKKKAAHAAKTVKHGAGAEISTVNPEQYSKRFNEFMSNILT
How it was run: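 Transcreener FI fluorescence, converted to GDP by calibration, tracked product from 5 nM E. coli-expressed GST-PIP4KIIB acting on 80 uM PI5P (DOPE carrier) with 100 uM GTP. Compound (top 4.8 uM final, 5% DMSO) was preincubated 1 h at 27 C before the 2 h reaction; IC50 fitted from residual activity.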

IC50 [1] | IC50 [2] | IC50 [3] | SMILES
5 to 100 nM | 100 to 1000 nM | 10 to 100 nM | O=C(NCc1ccc2c(c1)COB2O)c1cc2c(-c3cncc(-c4ccc(N5CCCC5=O)cc4)c3)ccnc2[nH]1 [Example 276, N-((1-hydroxy-1,3-dihydrobenzo[c][1,2]oxaborol-5-yl)methyl)-4-(5-(4-(2-oxopyrrolidin-1-yl)phenyl)pyridin-3-yl)-1H-pyrrolo[2,3-b]pyridine-2-carboxamide]
5 to 100 nM | 100 to 1000 nM | 100 to 1000 nM | Cn1cc(-c2cncc(-c3ccc(N4CCCC4=O)cc3)c2)c2cccnc21 [Example 39, 1-(4-(5-(1-methyl-1H-pyrrolo[2,3-b]pyridin-3-yl)pyridin-3-yl)phenyl)pyrrolidin-2-one]
5 to 100 nM | 100 to 1000 nM | 10 to 100 nM | CN(C)C(=O)c1cc2c(-c3cncc(-c4ccc(N5CCCC5=O)cc4)c3)ccnc2o1 [Example 50, N,N-dimethyl-4-(5-(4-(2-oxopyrrolidin-1-yl)phenyl)pyridin-3-yl)furo[2,3-b]pyridine-2-carboxamide]
100 to 1000 nM | 100 to 1000 nM | 100 to 1000 nM | CN(C)C(=O)c1ccc(-c2cc(-c3[nH]nc4ncncc34)cnc2N)nc1 [Example 214, 2′-amino-N,N-dimethyl-5′-(2H-pyrazolo[3,4-d]pyrimidin-3-yl)-[2,3′-bipyridine]-5-carboxamide]
100 to 1000 nM | 100 to 1000 nM | 100 to 1000 nM | CN(C)C(=O)c1ccc(-c2cc(-c3ccnc4cc(N(C)C)ccc34)cnc2N)nc1 [Example 110, 2′-amino-5′-(7-(dimethylamino)quinolin-4-yl)-N,N-dimethyl-[2,3′-bipyridine]-5-carboxamide]
5 to 100 nM | 10 to 100 nM | 10 to 100 nM | CNC(=O)c1cc2c(-c3cncc(-c4ccc(N5CCCC5=O)cc4)c3)ccnc2o1 [Example 49, N-methyl-4-(5-(4-(2-oxopyrrolidin-1-yl)phenyl)pyridin-3-yl)furo[2,3-b]pyridine-2-carboxamide]
5 to 100 nM | 100 to 1000 nM | 100 to 1000 nM | Cn1cc(-c2cncc(-c3ccc(N4CCCC4=O)cc3)c2)c2cn[nH]c2c1=O [Example 54, 6-methyl-4-(5-(4-(2-oxopyrrolidin-1-yl)phenyl)pyridin-3-yl)-1,6-dihydro-7H-pyrazolo[3,4-c]pyridin-7-one]
100 to 1000 nM | 1000 to 2500 nM | 100 to 1000 nM | CN(C)C(=O)c1ccc(-c2cc(-c3cc(Nc4cccc(NC(=O)c5cccc(N)c5)c4)ncn3)cnc2N)nc1 [Example 219, 2′-amino-5′-(6-((3-(3-aminobenzamido)phenyl)amino)pyrimidin-4-yl)-N,N-dimethyl-[2,3′-bipyridine]-5-carboxamide]
5 to 100 nM | 100 to 1000 nM | 10 to 100 nM | CC(C)OC(=O)c1cc2c(-c3cncc(-c4ccc(N5CCCC5=O)cc4)c3)ccnc2[nH]1 [Example 161, isopropyl 4-(5-(4-(2-oxopyrrolidin-1-yl)phenyl)pyridin-3-yl)-1H-pyrrolo[2,3-b]pyridine-2-carboxylate]
< 5000 nM | > 5000 nM | > 5000 nM | CN(CC1CCNCC1)C(=O)c1ccc(-c2cncc(-c3ccncc3)c2)cc1 [Example 179, 4-([3,4′-bipyridin]-5-yl)-N-methyl-N-(piperidin-4-ylmethyl)benzamide]
100 to 1000 nM | 2500 to 5000 nM | 1000 to 2500 nM | CN(C)C(=O)c1ccc(-c2cncc(-c3ccnc4c3ccn4C)c2)cc1 [Example 5, N,N-dimethyl-4-(5-(1-methyl-1H-pyrrolo[2,3-b]pyridin-4-yl)pyridin-3-yl)benzamide]
100 to 1000 nM | 100 to 1000 nM | 100 to 1000 nM | O=C1CCCN1c1ccc(-c2cncc(-c3ccnc4cn[nH]c34)c2)cc1 [Example 220, 1-(4-(5-(2H-pyrazolo[4,3-b]pyridin-7-yl)pyridin-3-yl)phenyl)pyrrolidin-2-one]
5 to 100 nM | 100 to 1000 nM | 100 to 1000 nM | Cn1cc(-c2cnc(N)c(-c3ccc(N4CCCC4=O)cc3)c2)c2cccnc21 [Example 87, 1-(4-(2-amino-5-(1-methyl-1H-pyrrolo[2,3-b]pyridin-3-yl)pyridin-3-yl)phenyl)pyrrolidin-2-one]
5 to 100 nM | 100 to 1000 nM | 100 to 1000 nM | Nc1ncc(-c2csc3ncccc23)cc1-c1ccc(N2CCCC2=O)cn1 [Example 23, 1-(2′-amino-5′-(thieno[2,3-b]pyridin-3-yl)-[2,3′-bipyridin]-5-yl)pyrrolidin-2-one]
1000 to 2500 nM | > 5000 nM | 2500 to 5000 nM | CN(C)C(=O)c1ccc(-c2cc(-c3ccnc(CNC(=O)CCc4cccc(NC(=O)OC(C)(C)C)c4)c3)cnc2N)nc1 [Example 193, tert-butyl (3-(3-(((2′-amino-5-(dimethylcarbamoyl)-[2,3′:5′,4″-terpyridin]-2″-yl)methyl)amino)-3-oxopropyl)phenyl)carbamate]
100 to 1000 nM | 1000 to 2500 nM | 100 to 1000 nM | Cc1cnc2[nH]ccc2c1-c1cncc(-c2ccc(N3CCCC3=O)cc2)c1 [Example 35, 1-(4-(5-(5-methyl-1H-pyrrolo[2,3-b]pyridin-4-yl)pyridin-3-yl)phenyl)pyrrolidin-2-one]
5 to 100 nM | 100 to 1000 nM | 100 to 1000 nM | O=C1CCCN1c1ccc(-c2cncc(-c3c[nH]c4ncncc34)c2)cc1 [Example 30, 1-(4-(5-(7H-pyrrolo[2,3-d]pyrimidin-5-yl)pyridin-3-yl)phenyl)pyrrolidin-2-one]
5 to 100 nM | 100 to 1000 nM | 10 to 100 nM | CN(C)C(=O)c1ccc(-c2cc(-c3ccnc4[nH]c(C(=O)NCc5cccnc5)cc34)cnc2N)nc1 [Example 136, 4-(2′-amino-5-(dimethylcarbamoyl)-[2,3′-bipyridin]-5′-yl)-N-(pyridin-3-ylmethyl)-1H-pyrrolo[2,3-b]pyridine-2-carboxamide]
5 to 100 nM | 100 to 1000 nM | 10 to 100 nM | O=C1c2cc3c(-c4cncc(-c5ccc(N6CCCC6=O)cc5)c4)ccnc3n2CCN1CC1CC1 [Example 47, 7-(cyclopropylmethyl)-4-(5-(4-(2-oxopyrrolidin-1-yl)phenyl)pyridin-3-yl)-8,9-dihydropyrido[3′,2′:4,5]pyrrolo[1,2-a]pyrazin-6(7H)-one]
1000 to 2500 nM | > 5000 nM | 1000 to 2500 nM | O=C1CCCN1c1ccc(-c2cncc(-c3c(OC4CCOCC4)cnc4[nH]ccc34)c2)cc1 [Example 268, 1-(4-(5-(5-((tetrahydro-2H-pyran-4-yl)oxy)-1H-pyrrolo[2,3-b]pyridin-4-yl)pyridin-3-yl)phenyl)pyrrolidin-2-one]
100 to 1000 nM | 100 to 1000 nM | 100 to 1000 nM | Nc1ncc(-c2ccncc2)cc1-c1ccc(N2CCCC2=O)cc1 [Example 84, 1-(4-(6-amino-[3,4′-bipyridin]-5-yl)phenyl)pyrrolidin-2-one]
5 to 100 nM | 10 to 100 nM | 100 to 1000 nM | Cn1cc(-c2cnc(N)nc2)c2cc(-c3cncc(-c4ccc(N5CCCC5=O)cc4)c3)cnc21 [Example 355, 1-(4-(5-(3-(2-aminopyrimidin-5-yl)-1-methyl-1H-pyrrolo[2,3-b]pyridin-5-yl)pyridin-3-yl)phenyl)pyrrolidin-2-one]
100 to 1000 nM | 100 to 1000 nM | 2500 to 5000 nM | O=C1CCCN1c1ccc(-c2cncc(-c3cnc4nccn4c3)c2)cc1 [Example 275, 1-(4-(5-(imidazo[1,2-a]pyrimidin-6-yl)pyridin-3-yl)phenyl)pyrrolidin-2-one]
